# Data published in patent US20260317299A1, “PIKFYVE PROTEIN KINASE DEGRADATION AGENT AND USE THEREOF” (Shanghai Institute of Organic Chemistry, Chinese Academy of …, priority 2023, published 2026).
# Target: T1, PIKfyve (Homo sapiens, UniProt Q9Y2I7)
# T1 construct: endogenous in cells; host or cells: VCaP
# Assay: Degradation of PIKfyve proteins in VCaP tumor cells (24 h, Western blot)
# Assay type: cell-based
# Conditions: 37° C., compared with DMSO control, WB, read-out: DC50 (concentration that achieves 50% degradation activity)
# Protocol: Method: 200 μL of cells at a density of 5×10^6 cells/ml were inoculated into a 6-well plate, and then different concentrations of drugs were added. The cells were treated at 37° C. for 24 h. The […] was collected and washed with PBS twice. Then, 100-200 μL of 1×SDS lysate was added, and the cell lysate was collected into a centrifuge tube. The cells were disrupted ultrasonically for 10-20 sec, and boiled for 10 min. Protein samples were subjected to SDS-PAGE electrophoresis at a voltage of 90 V, transferred to PVDF membranes at 110 V, blocked with 5% BSA for 4 h, incubated with primary antibodies (PIKfyve, GAPDH) at 4° C. overnight, and incubated with secondary antibodies (anti-Rabbit IgG or anti-Mouse IgG) at room temperature. The membranes were washed with TBST buffer, developed with an ECL developing solution, and then imaged to obtain protein band signals, with single-concentration WB results as shown in FIG. 1. Compared with the DMSO control group, the concentration that achieves 50% degradation activity is defined as DC50.
# T1 sequence (Q9Y2I7 whole entry): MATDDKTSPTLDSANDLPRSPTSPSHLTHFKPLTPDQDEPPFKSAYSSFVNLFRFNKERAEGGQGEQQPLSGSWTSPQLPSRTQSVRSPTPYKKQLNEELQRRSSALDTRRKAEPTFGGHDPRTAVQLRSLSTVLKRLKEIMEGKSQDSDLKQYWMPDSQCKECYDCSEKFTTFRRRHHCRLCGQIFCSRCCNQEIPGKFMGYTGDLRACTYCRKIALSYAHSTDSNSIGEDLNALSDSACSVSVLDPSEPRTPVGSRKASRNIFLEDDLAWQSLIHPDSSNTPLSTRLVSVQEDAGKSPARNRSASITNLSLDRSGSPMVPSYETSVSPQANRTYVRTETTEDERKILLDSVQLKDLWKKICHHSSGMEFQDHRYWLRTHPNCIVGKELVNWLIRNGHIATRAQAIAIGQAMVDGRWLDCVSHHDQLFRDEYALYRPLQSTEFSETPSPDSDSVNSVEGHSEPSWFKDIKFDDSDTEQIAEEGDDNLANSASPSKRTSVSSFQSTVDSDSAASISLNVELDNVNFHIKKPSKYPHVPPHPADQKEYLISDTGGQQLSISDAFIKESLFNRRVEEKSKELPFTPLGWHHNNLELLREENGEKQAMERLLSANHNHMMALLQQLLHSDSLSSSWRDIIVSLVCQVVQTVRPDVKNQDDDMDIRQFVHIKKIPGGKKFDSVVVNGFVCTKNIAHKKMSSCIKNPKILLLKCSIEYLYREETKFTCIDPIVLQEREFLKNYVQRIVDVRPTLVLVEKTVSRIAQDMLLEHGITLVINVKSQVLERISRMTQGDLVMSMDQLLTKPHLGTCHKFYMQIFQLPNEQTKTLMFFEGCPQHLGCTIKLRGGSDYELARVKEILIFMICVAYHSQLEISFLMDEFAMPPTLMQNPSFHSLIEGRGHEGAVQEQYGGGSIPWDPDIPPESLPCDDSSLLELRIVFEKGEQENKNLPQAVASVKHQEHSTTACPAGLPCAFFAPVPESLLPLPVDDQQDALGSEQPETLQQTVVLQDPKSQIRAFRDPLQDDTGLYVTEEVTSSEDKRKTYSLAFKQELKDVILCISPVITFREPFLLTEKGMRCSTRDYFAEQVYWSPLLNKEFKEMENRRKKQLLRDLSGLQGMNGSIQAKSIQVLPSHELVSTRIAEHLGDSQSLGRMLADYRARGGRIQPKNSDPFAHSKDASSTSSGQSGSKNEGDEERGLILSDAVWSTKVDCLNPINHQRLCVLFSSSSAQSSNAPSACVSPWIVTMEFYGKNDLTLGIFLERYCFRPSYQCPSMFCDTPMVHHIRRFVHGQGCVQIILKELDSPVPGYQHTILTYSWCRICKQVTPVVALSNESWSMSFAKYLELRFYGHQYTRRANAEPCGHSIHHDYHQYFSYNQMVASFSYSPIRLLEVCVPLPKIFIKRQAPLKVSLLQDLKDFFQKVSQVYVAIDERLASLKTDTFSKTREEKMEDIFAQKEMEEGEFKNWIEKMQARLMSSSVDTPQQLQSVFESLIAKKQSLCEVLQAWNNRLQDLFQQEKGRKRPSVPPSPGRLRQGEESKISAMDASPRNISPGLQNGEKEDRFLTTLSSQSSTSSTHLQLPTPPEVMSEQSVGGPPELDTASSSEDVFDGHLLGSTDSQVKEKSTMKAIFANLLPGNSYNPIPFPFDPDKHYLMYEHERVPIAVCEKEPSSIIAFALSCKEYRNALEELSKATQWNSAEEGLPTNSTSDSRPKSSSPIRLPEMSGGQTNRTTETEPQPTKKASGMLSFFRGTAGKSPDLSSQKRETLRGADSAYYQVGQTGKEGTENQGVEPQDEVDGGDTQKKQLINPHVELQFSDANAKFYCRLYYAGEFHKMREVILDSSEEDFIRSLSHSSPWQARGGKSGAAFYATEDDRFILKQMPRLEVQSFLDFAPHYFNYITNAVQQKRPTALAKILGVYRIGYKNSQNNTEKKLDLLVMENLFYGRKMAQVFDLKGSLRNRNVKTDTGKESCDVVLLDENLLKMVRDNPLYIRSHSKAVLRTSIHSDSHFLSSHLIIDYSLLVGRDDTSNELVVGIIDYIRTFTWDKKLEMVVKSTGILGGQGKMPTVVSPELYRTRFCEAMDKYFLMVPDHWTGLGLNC
row,DC50 [nM],SMILES
1,1 to 100,Cc1cccc(/C=N/Nc2cc(N3CCOCC3)nc(OCCc3ccc(NC(=O)CCCCC(=O)N[C@H](C(=O)N4C[C@H](O)C[C@H]4C(=O)N[C@@H](C)c4ccc(-c5scnc5C)cc4)C(C)(C)C)cc3)n2)c1 [Example 46]
2,1 to 100,"Cc1cccc(-c2ccn(-c3cc(N4CCOCC4)nc(OCCc4ccc(-c5ccc(NC(=O)C[C@H](NC(=O)[C@@H]6C[C@@H](O)CN6C(=O)[C@@H](NC(=O)C6(F)CC6)C(C)(C)C)c6ccc(-c7scnc7C)cc6)cc5)cc4)n3)n2)c1 [Example 87, (2S,4R)-1-((S)-2-(1-fluorocyclopropane-1-carboxamido)-3,3-dimethylbutanoyl)-4-hydroxy-N—((S)-1-(4-(4-methylthiazol-5-yl)phenyl)-3-((4′-(2-((4-morpholino-6-(3-(m-tolyl)-1H-pyrazol-1-yl)pyrimidin-2-yl)oxy)ethyl)-[1,1′-biphenyl]-4-yl)amino)-3-oxopropyl)pyrrolidine-2-carboxamide]"
3,1 to 100,"Cc1cccc(/C=N/Nc2cc(N3CCOCC3)nc(OCCc3ccc(NC(=O)CCCCCCC(=O)Nc4ccc5c(c4)C(=O)N(C4CCC(=O)NC4=O)C5)cc3)n2)c1 (stereo not shown) [Example 30, (E)-N^1-(2-(2,6-dioxopiperidin-3-yl)-3-oxoisoindol-5-yl)-N^8-(4-(2-((4-(2-(3-methylbenzylidene)hydrazino)-6-morpholinopyrimidin-2-yl)oxy)ethyl)phenyl)octanediamide]"
4,100 to 10000,"Cc1cccc(/C=N/Nc2cc(N3CCOCC3)nc(OCCc3ccc(NC(=O)CCCCCCC(=O)Nc4ccc5c(c4)CN(C4CCC(=O)NC4=O)C5=O)cc3)n2)c1 (stereo not shown) [Example 26, (E)-N^1-(2-(2,6-dioxopiperidin-3-yl)-1-oxoisoindolin-5-yl)-N^8-(4-(2-((4-(2-(3-methylbenzylidene)hydrazino)-6-morpholinopyrimidin-2-yl)oxy)ethyl)phenyl)octanediamide]"
5,1 to 100,"Cc1cccc(-c2ccn(-c3cc(N4CCOCC4)nc(OC4CCN(c5ccc(NC(=O)NC6CCN(C(=O)CC[C@H](NC(=O)[C@@H]7C[C@@H](O)CN7C(=O)[C@@H](NC(=O)C7(F)CC7)C(C)(C)C)c7ccc(-c8scnc8C)cc7)CC6)cc5)CC4)n3)n2)c1 [Example 83, (2S,4R)-1-((S)-2-(1-fluorocyclopropane-1-carboxamido)-3,3-dimethylbutanoyl)-4-hydroxy-N—((S)-1-(4-(4-methylthiazol-5-yl)phenyl)-4-(4-(3-(4-(4-((4-morpholino-6-(3-(m-tolyl)-1H-pyrazol-1-yl)pyrimidin-2-yl)oxy)piperidin-1-yl)phenyl)ureido)piperidin-1-yl)-4-oxobutyl)pyrrolidine-2-carboxamide]"
6,1 to 100,"Cc1cccc(/C=N/Nc2cc(N3CCOCC3)nc(OCCc3ccc(NC(=O)CNC(=O)CC[C@H](NC(=O)[C@@H]4C[C@@H](O)CN4C(=O)[C@@H](NC(=O)C4(F)CC4)C(C)(C)C)c4ccc(-c5scnc5C)cc4)cc3)n2)c1 [Example 50, (2S,4R)-1-((S)-2-(1-fluorocyclopropane-1-carboxamido)-3,3-dimethylbutanoyl)-4-hydroxy-N—((S)-4-((2-((4-(2-((4-(2-((E)-3-methylbenzylidene)hydrazino)-6-morpholinopyrimidin-2-yl)oxy)ethyl)phenyl)amino)-2-oxoethyl)amino)-1-(4-(4-methylthiazol-5-yl)phenyl)4-oxobutyl)pyrrolidine-2-carboxamide]"
7,1 to 100,"Cc1cccc(/C=N/Nc2cc(N3CCOCC3)nc(OCCc3ccc(NC(=O)CNC(=O)COc4cc(-c5scnc5C)ccc4CNC(=O)[C@@H]4C[C@@H](O)CN4C(=O)[C@@H](NC(=O)C4(F)CC4)C(C)(C)C)cc3)n2)c1 [Example 54, (2S,4R)-1-((S)-2-(1-fluorocyclopropane-1-carboxamido)-3,3-dimethylbutanoyl)-4-hydroxy-N-(2-(2-((2-((4-(2-((4-(2-((E)-3-methylbenzylidene)hydrazino)-6-morpholinopyrimidin-2-yl)oxy)ethyl)phenyl)amino)-2-oxoethyl)amino)-2-oxoethoxy)-4-(4-methylthiazol-5-yl)benzyl)pyrrolidine-2-carboxamide]"
8,100 to 10000,"Cc1cccc(-c2ccn(-c3cc(N4CCOCC4)nc(Oc4ccc(N5CCN(CC6CCN(c7cc8c(cc7F)C(=O)N(C7CCC(=O)NC7=O)C8=O)CC6)CC5)cc4)n3)n2)c1 (stereo not shown) [Example 96, 2-(2,6-Dioxopiperidin-3-yl)-5-fluoro-6-(4-((4-(4-((4-morpholino-6-(3-(m-tolyl)-1H-pyrazol-1-yl)pyrimidin-2-yl)oxy)phenyl)piperazin-1-yl)methyl)piperidin-1-yl)isoindoline-1,3-dione]"
9,1 to 100,"Cc1cccc(/C=N/Nc2cc(N3CCOCC3)nc(OCCc3ccc(NC(=O)CCCCCCCCC(=O)Nc4ccc5c(c4)CN(C4CCC(=O)NC4=O)C5=O)cc3)n2)c1 (stereo not shown) [Example 27, (E)-N^1-(2-(2,6-dioxopiperidin-3-yl)-1-oxoisoindolin-5-yl)-N^10-(4-(2-((4-(2-(3-methylbenzylidene)hydrazino)-6-morpholinopyrimidin-2-yl)oxy)ethyl)phenyl)decanediamide]"
10,100 to 10000,"Cc1cccc(/C=N/Nc2cc(N3CCOCC3)nc(OCCc3ccc(NC(=O)CNC(=O)CSC(C)(C)[C@H](NC(=O)C4(F)CC4)C(=O)N4C[C@H](O)C[C@H]4C(=O)NCc4ccc(-c5scnc5C)cc4)cc3)n2)c1 [Example 58, (2S,4R)-1-((R)-2-(1-fluorocyclopropane-1-carboxamido)-3-methyl-3-((2-((2-((4-(2-((4-(2-((E)-3-methylbenzylidene)hydrazino)-6-morpholinopyrimidin-2-yl)oxy)ethyl)phenyl)amino)-2-oxoethyl)amino)-2-oxoethyl)thio)butanoyl)-4-hydroxy-N-(4-(4-methylthiazol-5-yl)benzyl)pyrrolidine-2-carboxamide]"
11,1 to 100,"Cc1cccc(/C=N/Nc2cc(N3CCOCC3)nc(OCCc3ccc(NC(=O)CCCCCCCCC(=O)N[C@H](C(=O)N4C[C@H](O)C[C@H]4C(=O)NCc4ccc(-c5scnc5C)cc4)C(C)(C)C)cc3)n2)c1 [Example 40, N^1—((S)-1-((2S,4R)-4-hydroxy-2-((4-(4-methylthiazol-5-yl)benzyl)carbamoyl)pyrrolidine-1-yl)-3,3-dimethyl-1-oxobutan-2-yl)-N^10-(4-(2-((4-(2-((E)-3-methylbenzylidene) hydrazino)-6-morpholinopyrimidin-2-yl)oxy)ethyl)phenyl)decanediamide]"
12,1 to 100,"Cc1cccc(-c2ccn(-c3cc(N4CCOCC4)nc(OCCc4ccc(C#CC5CCN(C(=O)C[C@H](NC(=O)[C@@H]6C[C@@H](O)CN6C(=O)[C@@H](NC(=O)C6(F)CC6)C(C)(C)C)c6ccc(-c7scnc7C)cc6)CC5)cc4)n3)n2)c1 [Example 70, (2S,4R)-1-((S)-2-(1-fluorocyclopropane-1-carboxamido)-3,3-dimethylbutanoyl)-4-hydroxy-N—((S)-1-(4-(4-methylthiazol-5-yl)phenyl)-3-(4-((4-(2-((4-morpholino-6-(3-(m-tolyl)-1H-pyrazol-1-yl)pyrimidin-2-yl)oxy)ethyl)phenyl)ethynyl)piperidin-1-yl)-3-oxopropyl) pyrrolidine-2-carboxamide]"
13,100 to 10000,"Cc1cccc(/C=N/Nc2cc(N3CCOCC3)nc(OCCc3ccc(NC(=O)CCCCCCCCCCC(=O)Nc4cccc5c4CN(C4CCC(=O)NC4=O)C5=O)cc3)n2)c1 (stereo not shown) [Example 23, (E)-N^1-(2-(2,6-dioxopiperidin-3-yl)-1-oxoisoindolin-4-yl)-N^12-(4-(2-((4-(2-(3-methylbenzylidene)hydrazino)-6-morpholinopyrimidin-2-yl)oxy)ethyl)phenyl)dodecanediamide]"
14,100 to 10000,"Cc1cccc(/C=N/Nc2cc(N3CCOCC3)nc(OCCNC(=O)CCCCC(=O)N[C@H](C(=O)N3C[C@H](O)C[C@H]3C(=O)NCc3ccc(-c4scnc4C)cc3)C(C)(C)C)n2)c1 [Example 62, N^1—((S)-1-((2S,4R)-4-hydroxy-2-((4-(4-methylthiazol-5-yl)benzyl)carbamoyl)pyrrolidine-1-yl)-3,3-dimethyl-1-oxobutan-2-yl)-N^6-(2-((4-(2-((E)-3-methylbenzylidene) hydrazino)-6-morpholinopyrimidin-2-yl)oxy)ethyl)adipamide]"
15,1 to 100,"Cc1cccc(-c2ccn(-c3cc(N4CCOCC4)nc(OCCc4ccc(N5CCN(C(=O)CCCC[C@H](NC(=O)[C@@H]6C[C@@H](O)CN6C(=O)[C@@H](NC(=O)C6(F)CC6)C(C)(C)C)c6ccc(-c7scnc7C)cc6)CC5)cc4)n3)n2)c1 [Example 77, (2S,4R)-1-((S)-2-(1-fluorocyclopropane-1-carboxamido)-3,3-dimethylbutanoyl)-4-hydroxy-N—((S)-1-(4-(4-methylthiazol-5-yl)phenyl)-6-(4-(4-(2-((4-morpholino-6-(3-(m-tolyl)-1H-pyrazol-1-yl)pyrimidin-2-yl)oxy)ethyl)phenyl)piperazin-1-yl)-6-oxohexyl)pyrrolidine-2-carboxamide]"
16,1 to 100,"Cc1cccc(-c2ccn(-c3cc(N4CCOCC4)nc(OCCc4ccc(C#CC5CCN(C(=O)CCCC[C@H](NC(=O)[C@@H]6C[C@@H](O)CN6C(=O)[C@@H](NC(=O)C6(F)CC6)C(C)(C)C)c6ccc(-c7scnc7C)cc6)CC5)cc4)n3)n2)c1 [Example 72, (2S,4R)-1-((S)-2-(1-fluorocyclopropane-1-carboxamido)-3,3-dimethylbutanoyl)-4-hydroxy-N—((S)-1-(4-(4-methylthiazol-5-yl)phenyl)-6-(4-((4-(2-((4-morpholino-6-(3-(m-tolyl)-1H-pyrazol-1-yl)pyrimidin-2-yl)oxy)ethyl)phenyl)ethynyl)piperidin-1-yl)-6-oxohexyl) pyrrolidine-2-carboxamide]"
